One series relates to HBsAg. Description: microbe, parasite or virus in culture. As to conditions: Hepatitis B virus, read-out: HBsAg IC50. Format: cell-based, HBV.
For series [1], the system named is primary human hepatocyte (PHH). Description: Cytotoxicity in PHH natural infection assay (Cell Counting Kit-8). Format: cell-based. As to conditions: therapeutic index; CC50 by CCK8 in PHH over HBsAg IC50. How it is done:
Detailed procedures regarding primary human hepatocyte (PHH) HBV natural infection assay are described as below. One tube of frozen PHH (10 million cells) was thawed in 37° C. water bath and then transferred to 20 mL of PHH thawing medium (Sigma, InVitroGRO HT Medium, Cat. 503319) with gently mixing. The cells were then centrifuged at […] for 5 min, the supernatant was discarded and the tube was refilled with 25 mL of PHH plating medium (Sigma, InVitroGRO CP Medium, Cat. 503317). The tube was shaken very gently to re-suspend all cells, and then 50 μl of cells were transferred to each well of a 384-well collagen I coated plate with appropriate liquid handling equipment, e.g. Integra VIAFLO384 or Agilent Bravo. The cells were then cultured for 24 hours in a cell incubator. For HBV infection, after PHH attachment on the culture plate, the plating medium was removed and replenished with PHH culture medium containing HBV virus. The PHH culture medium was prepared with Dulbecco's Modified Eagle Medium (DMEM)/F12 (1:1 in volume ratio) containing 10% fetal bovine serum (Gibco, Cat.10099141), 5 ng/mL human epidermal growth factor (Gibco, Cat.PHG031 IL), 20 ng/mL dexamethasone (Sigma, Cat.D4902-100 mg), 250 ng/mL human recombinant insulin (Gibco, Cat.41400045) and 100 U/mL penicillin. HBV virus at 200 genome equivalent (GE) per cell with 4% PEG8000 (Sigma, Cat.P1458) containing culture medium were added to the PHH culture medium for infection. The cells were then cultured for 24 hours in cell incubator. Then the cell culture supernatant was removed. The HBV-infected PHH were cultured with sandwich culture method with PHH culture medium containing 1% DMSO and 0.25 mg/mL matrix gel for 72 hours. The supernatant was then refreshed with PHH culture medium containing different concentrations of testing compounds for two times with 72-hour interval. At the end of treatment, the supernatant was collected for viral markers measurements, including HBsAg, HBeAg, HBV DNA and cytotoxicity. HBsAg and HBeAg were detected using alphalisa method using their specific antibodies. For HBV DNA detection, HBV DNA Quantitative Fluorescence Diagnostic Kit (Sansure Biotech Inc.) was used following the manufacture's protocol. Cytotoxicity was determined using Cell Counting Kit-8 (CCK8, Dojindo Molecular Technologies, Inc.).
In general terms: Formazan colour is commonly taken as a measure of viable cells.

A further series has as its system HBeAg. Description: microbe, parasite or virus in culture. Format: cell-based, HBV. The conditions noted are these: Hepatitis B virus, read-out: HBeAg IC50.
Series [2] can be described thus: Human microsome stability assay. It is filed as in vitro ADME. The conditions noted are these: 1 μM compound, 0.5 mg/mL microsomal protein, 37° C.; detection limit 6.15 mL/min/kg. The protocol: Human Microsome Stability Assay The human microsomal stability assay is used for early assessment of metabolic stability of a test compound in human liver microsomes. Human liver microsomes (Cat. […] The reactions were initiated by adding NADPH regenerating system. […] Following precipitation and centrifugation, the amount of compound remaining in the samples were determined by LC-MS/MS. Controls of no NADPH regenerating system at zero and 30 minutes were also prepared and analyzed.

Results on 15 molecules are retold here after patent publication US20230278997A1, “BICYCLO[1.1.1]PENTANE COMPOUNDS FOR THE TREATMENT AND PROPHYLAXIS OF HEPATITIS B VIRUS INFECTION” (Hoffmann-La Roche Inc., priority 2020, published 2023).

The IC50 is the concentration that gives 50% inhibition.

Some results are limits rather than exact numbers.

For `CS(=O)(=O)C1(c2nsc(C(=O)NC34CC(c5nc(-c6cccc(Cl)c6)cs5)(C3)C4)n2)CC1` [Example 4, N-[3-[4-(3-chlorophenyl)thiazol-2-yl]-1-bicyclo[1.1.1]pentanyl]-3-(1-methylsulfonylcyclopropyl)-1,2,4-thiadiazole-5-carboxamide], the IC50 in the series with HBsAg is 170 nM; in the series with HBeAg, 120 nM. Further, the “TI (CC50/IC50 HBsAg)” value in series [1] amounted to 29.65. For the same molecule, in series [2], the “Clearance of human microsome” value was ≤6.15 mL/min/kg.

With `CS(=O)(=O)C1(c2ncc(C(=O)NC34CC(c5nc(-c6ccc(Cl)cc6)cs5)(C3)C4)o2)CC1` [Example 6, N-[3-[4-(4-chlorophenyl)thiazol-2-yl]-1-bicyclo[1.1.1]pentanyl]-2-(1-methylsulfonylcyclopropyl)oxazole-5-carboxamide], the values for the IC50 in the series with HBsAg and with HBeAg were 80 nM and 50 nM, respectively. Further, the “TI (CC50/IC50 HBsAg)” value in series [1] is 81.63. Moreover, the “Clearance of human microsome” value in series [2] is reported as ≤6.15 mL/min/kg.

As for `CS(=O)(=O)C1(c2ccc(C(=O)NC34CC(c5nc(-c6ccc(Cl)c(Cl)c6)cs5)(C3)C4)o2)CC1` [Example 8, N-[3-[4-(3,4-dichlorophenyl)thiazol-2-yl]-1-bicyclo[1.1.1]pentanyl]-5-(1-methylsulfonylcyclopropyl)furan-2-carboxamide], the figures for the IC50 with HBsAg and in the series on HBeAg were 160 nM and 110 nM, respectively. In addition, the “TI (CC50/IC50 HBsAg)” value in series [1] was found to be 16.69. Further, the “Clearance of human microsome” value in series [2] is ≤6.15 mL/min/kg.

With `CS(=O)(=O)C1(c2ccc(C(=O)NC34CC(c5nc(-c6ccc(Cl)cn6)cs5)(C3)C4)o2)CC1` [Example 10, N-[3-[4-(5-chloro-2-pyridyl)thiazol-2-yl]-1-bicyclo[1.1.1]pentanyl]-5-(1-methylsulfonylcyclopropyl)furan-2-carboxamide], the results for the concentration for half-maximal inhibition (IC50) in the series on HBsAg and with HBeAg were 280 nM and 200 nM, respectively. Further, the “TI (CC50/IC50 HBsAg)” value in series [1] is given as 31.11. For the same molecule, the “Clearance of human microsome” value in series [2] is given as ≤6.15 mL/min/kg.

With `CS(=O)(=O)C1(c2ccc(C(=O)NC34CC(c5nc(-c6ccccc6)cs5)(C3)C4)o2)CC1` [Example 13, 5-(1-methylsulfonylcyclopropyl)-N-[3-(4-phenylthiazol-2-yl)-1-bicyclo[1.1.1]pentanyl]furan-2-carboxamide], the 50% inhibitory concentration (IC50) with HBsAg came to 770 nM; with HBeAg, 560 nM. In addition, in series [1], the “TI (CC50/IC50 HBsAg)” value is listed as 12.38. Further, the “Clearance of human microsome” value in series [2] is listed as ≤6.15 mL/min/kg.

On to `CS(=O)(=O)C1(c2ccc(C(=O)NC34CC(c5nc(-c6ccc(Cl)cc6)ns5)(C3)C4)o2)CC1` [Example 18, N-[3-[3-(4-chlorophenyl)-1,2,4-thiadiazol-5-yl]-1-bicyclo[1.1.1]pentanyl]-5-(1-methylsulfonylcyclopropyl)furan-2-carboxamide], for which the IC50 in the series with HBsAg was determined as 190 nM; with HBeAg, 120 nM. In addition, the “TI (CC50/IC50 HBsAg)” value in series [1] worked out at 39.05. Also, the “Clearance of human microsome” value in series [2] came to 8.8 mL/min/kg.

Regarding `CS(=O)(=O)C1(c2ccc(C(=O)NC34CC(c5ncc(-c6ccc(Cl)cc6)s5)(C3)C4)o2)CC1` [Example 19, N-[3-[5-(4-chlorophenyl)thiazol-2-yl]-1-bicyclo[1.1.1]pentanyl]-5-(1-methylsulfonylcyclopropyl)furan-2-carboxamide], the IC50 came to 210 nM in the series on HBsAg and 160 nM in the series with HBeAg. The “TI (CC50/IC50 HBsAg)” value in series [1] is >47.62. In addition, in series [2], the “Clearance of human microsome” value was ≤6.15 mL/min/kg.

In the case of `CS(=O)(=O)C1(c2ccc(C(=O)NC34CC(c5ncc(-c6ccc(Cl)c(Cl)c6)s5)(C3)C4)o2)CC1` [Example 21, N-[3-[5-(3,4-dichlorophenyl)thiazol-2-yl]-1-bicyclo[1.1.1]pentanyl]-5-(1-methylsulfonylcyclopropyl)furan-2-carboxamide], the IC50 with HBsAg and in the series with HBeAg was 70 nM in each case. Moreover, the “TI (CC50/IC50 HBsAg)” value in series [1] is reported as 29.86. For the same molecule, in series [2], the “Clearance of human microsome” value is recorded as 6.66 mL/min/kg.

On to `CS(=O)(=O)C1(c2ccc(C(=O)NC34CC(c5csc(-c6ccccc6)n5)(C3)C4)o2)CC1` [Example 26, 5-(1-methylsulfonylcyclopropyl)-N-[3-(2-phenylthiazol-4-yl)-1-bicyclo[1.1.1]pentanyl]furan-2-carboxamide], for which the figures for the IC50 in the series with HBsAg and in the series with HBeAg were 780 nM and 530 nM, respectively. Moreover, the “TI (CC50/IC50 HBsAg)” value in series [1] came to 8.91. In addition, the “Clearance of human microsome” value in series [2] is ≤6.15 mL/min/kg.

As for `CS(=O)(=O)C1(c2ccc(C(=O)NC34CC(c5csc(-c6ccc(Cl)cc6)n5)(C3)C4)o2)CC1` [Example 27, N-[3-[2-(4-chlorophenyl)thiazol-4-yl]-1-bicyclo[1.1.1]pentanyl]-5-(1-methylsulfonylcyclopropyl)furan-2-carboxamide], the IC50 in the series with HBsAg is 130 nM; in the series on HBeAg it was 90 nM. For the same molecule, the “TI (CC50/IC50 HBsAg)” value in series [1] was determined as 39.46. Further, in series [2], the “Clearance of human microsome” value is on record as ≤6.15 mL/min/kg.

As to `CS(=O)(=O)Cc1nsc(C(=O)NC23CC(c4nc(-c5ccc(Cl)cc5)no4)(C2)C3)n1` [Example 33, N-[3-[3-(4-chlorophenyl)-1,2,4-oxadiazol-5-yl]-1-bicyclo[1.1.1]pentanyl]-3-(methylsulfonylmethyl)-1,2,4-thiadiazole-5-carboxamide], the figures for the half-maximal inhibitory concentration (IC50) with HBsAg and in the series with HBeAg were 440 nM and 370 nM, respectively. For the same molecule, the “TI (CC50/IC50 HBsAg)” value in series [1] is on record as >22.73. For the same molecule, in series [2], the “Clearance of human microsome” value is ≤6.15 mL/min/kg.

`CS(=O)(=O)C1(c2nsc(C(=O)NC34CC(c5nc(-c6ccc(F)cc6)no5)(C3)C4)n2)CC1` [Example 35, N-[3-[3-(4-fluorophenyl)-1,2,4-oxadiazol-5-yl]-1-bicyclo[1.1.1]pentanyl]-3-(1-methylsulfonylcyclopropyl)-1,2,4-thiadiazole-5-carboxamide]: the results for the concentration for half-maximal inhibition (IC50) in the series with HBsAg and in the series on HBeAg were 50 nM and 40 nM, respectively. The “TI (CC50/IC50 HBsAg)” value in series [1] was 79.80. Further, in series [2], the “Clearance of human microsome” value is ≤6.15 mL/min/kg.

In the case of `CS(=O)(=O)C1(c2ccc(C(=O)NC34CC(c5ccn(-c6ccc(Cl)cc6)n5)(C3)C4)o2)CC1` [Example 42, N-[3-[1-(4-chlorophenyl)pyrazol-3-yl]-1-bicyclo[1.1.1]pentanyl]-5-(1-methylsulfonylcyclopropyl)furan-2-carboxamide], the results for the half-inhibitory concentration (IC50) in the series with HBsAg and with HBeAg were 590 nM and 340 nM, respectively. For the same molecule, in series [1], the “TI (CC50/IC50 HBsAg)” value is recorded as 13.39. Also, the “Clearance of human microsome” value in series [2] came out at 8.21 mL/min/kg.

Consider `CS(=O)(=O)C1(c2nsc(C(=O)NC34CC(c5ccn(-c6ccc(Cl)cc6)n5)(C3)C4)n2)CC1` [Example 43, N-[3-[1-(4-chlorophenyl)pyrazol-3-yl]-1-bicyclo[1.1.1]pentanyl]-3-(1-methylsulfonylcyclopropyl)-1,2,4-thiadiazole-5-carboxamide], for which the values for the IC50 with HBsAg and in the series on HBeAg were 90 nM and 80 nM, respectively. Besides, in series [1], the “TI (CC50/IC50 HBsAg)” value was >111.11. For the same molecule, the “Clearance of human microsome” value in series [2] is given as ≤6.15 mL/min/kg.

As to `CS(=O)(=O)C1(c2ccc(C(=O)NC34CC(c5nnn(-c6ccc(Cl)cc6)n5)(C3)C4)o2)CC1` [Example 44, N-[3-[2-(4-chlorophenyl)tetrazol-5-yl]-1-bicyclo[1.1.1]pentanyl]-5-(1-methylsulfonylcyclopropyl)furan-2-carboxamide], the IC50 in the series with HBsAg turned out to be 350 nM; in the series on HBeAg, 270 nM. Besides, the “TI (CC50/IC50 HBsAg)” value in series [1] is given as 12.20. Also, in series [2], the “Clearance of human microsome” value was ≤6.15 mL/min/kg.
